{
  "source": "patent US20170057910A1",
  "about": "“ANTITUMOR NAPHTHALENYL BENZAMIDE DERIVATIVES” (THE CLEVELAND CLINIC FOUNDATION, priority 2015, published 2017)",
  "key": {"[1]": {"tested_on": "5TGM1-luc cells", "assay": "Immunocompetent systemic mouse myeloma model (5TGM1-luc)", "type": "in vivo", "details": "for anti-MM activity in vivo (imaging, time to death or euthanasia): albumin-based solutions, CCF642 IV then IP 1-12 mg/kg, CCF1172 IP three times a week 22 then 44 mg/kg; for adverse events by clinical observations and weekly weight measurements: three times a week clinical observations, increasing doses", "procedure": "C57BL/KaLwRij mice were injected with 4×10^6 5 TGM1-luc cells per mouse via the tail vein. The next day, treatments were started. Compounds were diluted from DMSO stock into aqueous bovine serum albumin (Sigma, cat. # A7030) solution, supplemented, after compound addition, with NaCl to a final NaCl concentration of 150 mM. In this pilot experiment we aimed to evaluate general tolerance and activity using increasing doses. CCF642 was given in 10% BSA IV twice a week for the first three weeks followed by IP three times a week. IV doses started with 1 mg/kg (3% DMSO) and increased by 1 mg/kg per week (6% DMSO in the second and 10% DMSO in the third week). IP doses started with 6 mg/kg in week 4 and from week 5 onwards used 12 mg/kg (10% DMSO in both). CCF1172 (obtained from SPECS) was given IP three times a week, 22 mg/kg in the first two weeks, then 44 mg/kg (10% BSA, 10% DMSO)."}, "[2]": {"tested_on": "MM cell lines", "assay": "Anti-MM activity in a panel of genetically heterogeneous MM cell lines", "type": "cell-based", "text": "(§1) Cell lines: Multiple myeloma cell lines MM1.S, MM1.R, NCI-H929 were obtained from ATCC. MM cell lines KMS-12-PE and KMS-12-BM were from the JCRB, JJN-3 from DSMZ, and 5TGM1-luc cells were from Dr. Yoneda at the University of Texas Health Science at San Antonio. HRMM.09 cells were generated in the inventor's lab from a patient who developed refractory myeloma after treatment with steroids, IMiD, proteasome inhibitors, DNA alkylators, and anthracyclines. MM1.S-luc and HRMM.09-luc were generated in the inventor's laboratory by transduction with Cignal™ firefly luciferase control lentivirus obtained from Qiagen™ Lymphoma cells were generated by Mitchell Smith. All MM and lymphoma cells were grown in RPMI 1640 (NaCl 103.45 mM, NaCO3 23.81 mM, Na2HPO4 5.63 mM, KCl 5.33 mM, Ca(NO3)2 4H2O 0.424 mM, MgSO4 0.407 mM, pH around 7.2), supplemented with 10% fetal bovine serum, penicillin G (50 units ml^−1), and streptomycin (50 μM ml^−1). HS-5 cells were grown in appropriate cell culture media. Normal bone marrow cells were obtained from discarded bags of bone marrow grafts from healthy donors and either kept in RPMI with 25% (v/v) HS-5 supernatant for up to 14 days for isolated cytotoxicity assays or frozen and thawed for the sandwich assay. All cells were cultured at 37° C., 5% CO2 in humidified air.\nTaking a mechanistically unbiased approach to drug discovery the inventors developed a sandwich assay that selected anti-MM compounds from a primary ATP-based 30,000 small molecule screen for lack of toxicity on normal bone marrow, stability towards liver enzymes, and activity in the context of cell barriers, bone marrow stromal support, and short, kidney-clearance-like exposure. CCF1172 emerged as one of three promising compounds and had sub-μM IC50 potency in all 8 MM cells tested and 6 of 7 lymphoma cell lines."}, "[3]": {"tested_on": "MM1.S-luc", "assay": "Three organ system sandwich assay, MM luciferase activity", "type": "cell-based", "text": "(§2) FIG. 1A, FIG. 1B, and FIG. 1C provide a scheme showing a sandwich three organ system assay, structures of lead compounds, and a graph of cell viability. Development of the three organ system sandwich assay yields structurally distinct promising anti-myeloma compounds. (a) To address the objective of identifying new clinically translatable treatments for the incurable cancer multiple myeloma (MM) that disrupt critical programs for this malignancy while sparing normal bone marrow, the inventors submitted hits from a mechanistically unbiased primary anti-MM screen to tests that modeled key components of the in vivo situation, initially separately, then in one multi-layered sandwich assay, followed by assessment of anti-MM activity in a panel of genetically heterogeneous MM cell lines.\n(§3) Sandwich assay: HS-5 bone marrow stromal cells which secrete hematopoietic growth factors including multiple myeloma (MM) supporting IL-6 are grown to confluence on Transwell™ inserts before firefly luciferase expressing MM1.S cells are added and incubated overnight. […] Three to four days later MM luciferase activity is measured and viability of NL BM, constantly drug exposed for maximal stringency, is assessed by trypan blue exclusion using Vicell™ flow."}, "[4]": {"assay": "Three organ system sandwich assay, normal bone marrow viability by trypan blue exclusion", "type": "cell-based", "details": "human, read-out: reduction of viable NLBM cells", "text": "as §2, §3"}, "[5]": {"tested_on": "lymphoma cell lines", "assay": "Activity in lymphoma cell lines", "type": "cell-based", "details": "6 of 7 lymphoma cell lines", "text": "as §1, with “air. […]” for “air.”"}, "[6]": {"tested_on": "refractory myeloma", "details": "cited from earlier work"}},
  "note": "Entries after “also recorded” stand apart in the source; their conditions may differ.",
  "data": [
    {"compound": "COc1ccc(N2C(=O)/C(=C\\c3ccc([N+](=O)[O-])s3)SC2=S)cc1", "note": "[CCF642, reference compound]", "values": [
      {"measurement": "anti-MM activity in vivo (imaging, time to death or euthanasia)", "setting": "[1]", "result": "had anti-MM activity"},
      {"measurement": "adverse events by clinical observations and weekly weight measurements", "setting": "[1]", "result": "No obvious adverse events"}
    ]},
    {"compound": "O=C(Nc1cccc2ccccc12)c1cc(Cl)ccc1O", "note": "[CCF1172]", "values": [
      {"measurement": "potency in the MM cell line panel compared with CCF642 and CCF1118", "setting": "[2]; MM cell line panel", "result": "less potent"},
      {"measurement": "IC50 potency in MM cells", "setting": "[2]; all 8 MM cells tested", "result": "sub-μM"},
      {"measurement": "activity against genetically heterogenous MM cell lines", "setting": "[2]; seven MM cell lines", "result": "uniform activity"},
      {"measurement": "effectiveness in the sandwich assay compared with CCF642 and CCF1118", "setting": "[3]", "result": "equally effective"},
      {"measurement": "reduction of MM1.S-luc luminescence", "setting": "[3]; 15 μM", "result": "70-80%"},
      {"measurement": "anti-MM activity in vivo (imaging, time to death or euthanasia)", "setting": "[1]", "result": "demonstrated in vivo activity; also recorded: had anti-MM activity"},
      {"measurement": "adverse events by clinical observations and weekly weight measurements", "setting": "[1]", "result": "No obvious adverse events"},
      {"measurement": "cytotoxicity at 15 μM", "setting": "[4]", "result": "< 30", "unit": "%"},
      {"measurement": "IC50 potency in lymphoma cell lines", "setting": "[5]", "result": "sub-μM"}
    ]},
    {"compound": "Daratumumab: the first anti-CD38 antibody for use in myeloma", "values": [
      {"measurement": "overall response rate", "setting": "[6]; single agent, refractory myeloma patients", "result": "about 30%"},
      {"measurement": "survival relative to expected survival", "setting": "[6]; two phase studies, patients with refractory myeloma", "result": "over twice of expected survival"}
    ]}
  ]
}
